Columns and labels:
steroid sulfatase [1] = target: T1, steroid sulfatase (Homo sapiens, UniProt P08842); assay: Steroid sulfatase inhibitory activity (in vitro), microsomal fraction of MCF-7 cells, [3H]estrone-3-sulfate hydrolysis; assay type: biochemical; parameters: microsomal fraction of MCF-7 human breast cancer cells was used; endogenous in cells; host or cells: MCF-7 human breast cancer cells (microsomal fraction); settings: MCF-7 microsomal fraction, 37° C., 30 minutes; for Inhibitory rate (%) (10^−6 M): 10^−6 M test compound; for Inhibitory rate (%) (10^−7 M): 10^−7 M test compound
T1 sequence (P08842 22-583): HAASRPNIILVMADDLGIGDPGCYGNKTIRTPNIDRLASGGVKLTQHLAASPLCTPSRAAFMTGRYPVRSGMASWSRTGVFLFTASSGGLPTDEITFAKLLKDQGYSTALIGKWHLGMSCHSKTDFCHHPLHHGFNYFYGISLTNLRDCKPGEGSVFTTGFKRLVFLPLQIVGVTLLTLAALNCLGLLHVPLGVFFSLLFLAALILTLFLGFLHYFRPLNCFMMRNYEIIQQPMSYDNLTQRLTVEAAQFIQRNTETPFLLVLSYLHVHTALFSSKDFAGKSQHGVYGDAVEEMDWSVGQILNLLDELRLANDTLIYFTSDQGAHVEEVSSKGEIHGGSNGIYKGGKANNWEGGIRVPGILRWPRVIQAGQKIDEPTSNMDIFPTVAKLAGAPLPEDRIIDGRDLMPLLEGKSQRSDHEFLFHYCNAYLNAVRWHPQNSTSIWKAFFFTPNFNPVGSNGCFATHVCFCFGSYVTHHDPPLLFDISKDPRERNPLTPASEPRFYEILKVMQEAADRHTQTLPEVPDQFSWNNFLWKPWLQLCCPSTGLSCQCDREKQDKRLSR
Method: (1) Measurement of Steroid Sulfatase Inhibitory Activity (in vitro):
As the source of steroid sulfatase enzyme, microsomal fraction of MCF-7 human breast cancer cells was used.
To phosphate buffered saline (PBS), one of the test compounds, the microsomal fraction and 50 μL of 60 μM estrone-3-sulfate containing about 100 nCi of [6,7-^3H]estrone-3-sulfate (purchased from Perkin Elmer Life Sciences, Boston, Mass., USA; specific activity, 40-60 Ci/mmol) were added to make the total amount of the reaction system 150 μL, which was incubated at 37° C. for 30 minutes. After the incubation, 50 μL of PBS containing about 2 nCi of [4-^14C] estrone (purchased from Perkin Elmer Life Sciences, Boston, Mass., USA; specific activity 45-60 mCi/mmol) was added and stirred. Further 800 μL of toluene was added, and the whole system was thoroughly shaken for 30 seconds, followed by centrifugation at 2,000×g for 10 minutes to separate the acqueous phase from the organic phase. A part (400 μL) of the organic phase was taken and measured of its ^3H and ^14C contents with scintillation spectrometer.
The mass of hydrolyzed [6,7-^3H]estrone-3-sulfate was calculated from the count number of the obtained ^3H (as corrected regarding the amount of the used organic phase and the recovered amount of [4-^14C]estrone) and the specific activity of the substrate ([6,7-^3H]estrone-3-sulfate) to determine the steroid sulfatase inhibitory rate of each test compound.

steroid sulfatase [2] = target: T2, steroid sulfatase (Rattus norvegicus, UniProt P15589); assay: Steroid sulfatase inhibitory activity (in vivo), liver and uterus of ovariectomized rats after oral dosing; settings: 0.5 mg/kg p.o. once a day for seven days, ovariectomized female SD rats
T2 construct: The livers and uteri were separately minced with scissors and suspended in cooled PBS containing 250 mM sucrose; from tissue; host or cells: liver and uterus of ovariectomized female SD rats (2,000 x g supernatant of homogenate)
T2 sequence (P15589 20-577): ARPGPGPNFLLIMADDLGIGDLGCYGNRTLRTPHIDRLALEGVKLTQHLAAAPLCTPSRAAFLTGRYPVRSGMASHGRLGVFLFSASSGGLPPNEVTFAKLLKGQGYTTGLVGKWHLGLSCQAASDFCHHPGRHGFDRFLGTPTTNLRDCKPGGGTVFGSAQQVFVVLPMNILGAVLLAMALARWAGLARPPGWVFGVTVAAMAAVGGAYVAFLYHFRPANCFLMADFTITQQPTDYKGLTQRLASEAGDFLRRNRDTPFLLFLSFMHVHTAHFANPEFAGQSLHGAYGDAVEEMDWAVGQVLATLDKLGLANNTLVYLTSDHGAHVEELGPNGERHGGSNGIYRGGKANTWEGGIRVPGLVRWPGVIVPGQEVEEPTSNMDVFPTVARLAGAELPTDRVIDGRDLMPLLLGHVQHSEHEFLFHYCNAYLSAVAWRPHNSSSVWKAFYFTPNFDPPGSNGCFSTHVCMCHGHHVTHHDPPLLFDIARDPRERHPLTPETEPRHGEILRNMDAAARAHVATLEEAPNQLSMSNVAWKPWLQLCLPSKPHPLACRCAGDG
Method: (2) Measurement of Steroid Sulfatase Inhibitory Activity (in vivo):
To six/group of female SD rats which had undergone ovariectomy, the test compounds as each suspended in 0.5% polyoxyethylene (20) sorbitan monooleate (Tween 80) were orally administered once a day for seven days. On the next day of the last administration, the rats were sacrificed under ether anesthesia. The bodies were anatomized and their livers and uteri were extracted, which were washed with cooled PBS and stored below −70° C. The livers and uteri were separately minced with scissors and suspended in cooled PBS containing 250 mM sucrose. Each of the suspensions was homogenized with a homogenizer under cooling with ice, from which neclei and cell debris were eliminated by centrifugation at 2,000×g for 20 minutes (4° C.). Protein concentration of each of the supernatant was measured by Bradford's method (Anal. Biochem., 72, 248-254 (1976)).
To 2-200 μg of the supernatant protein mass and 50 μL of 60 μM estrone-3-sulfate containing about 100 nCi of [6,7-^3H]estrone-3-sulfate (purchased from Perkin Elmer Life Sciences, Boston, Mass., U.S.A.; specific activity, 40-60 Ci/mmol), PBS was added to make the total amount 150 μL, followed by incubation at 37° C. for 30 minutes. After the incubation, the amount of hydrolyzed [6,7-^3H]estrone-3-sulfate was calculated by a method similar to the in vitro measurement in (1) above. Also steroid sulfatase activity per mg of the protein was calculated, and from the amount of the hydrolyzed [6,7-^3H]estrone-3-sulfate and the calculated steroid sulfatase activity per mg of the protein, the tested compound's steroid sulfatase inhibitory rate was determined.

MCF-7 cells = assay: MCF-7 cell proliferation measurement (MTT) for examining estrogenic activity; assay type: cell-based, human; settings: 4 days, 570 nm
Method: (3) MCF-7 Cell Proliferation Measurement for Examining Estrogenic Activity:
Stimulation of MCF-7 cell proliferation induced by estrogenic activity of each test compound was measured.
MCF-7 cells were cultured in 10% fetal bovine serum (FBS)-containing RPMI 1640 medium which was free from Phenol Red, using a 75 cm^2 culture flask. Then the medium was changed to RPMI 1640 medium containing 10% of FBS from which emdogenous steroid had been eliminated by charcoal treatment but containing no Phenol Red. Renewing the medium every two days, the culture was continued for 4 days. By this step estrogen was removed from the MCF-7 cells.
The MCF-7 cells were seeded on 96-well plates, 2,000 cells per well, and cultured for 24 hours to immobilize the cells on the plate. After the cell immobilization, the medium in each well was changed to RPMI 1640 medium containing 10^−6M test compound and 10% of charcoal-treated FBS but containing no Phenol Red, and the culture was continued for further 4 days, during which the medium was changed every day to one newly prepared before the use. Also control wells to which no test compound was added were provided.
After the end of the culture, the cell proliferation was measured by MTT (3-(4,5-dimethylthiazol-2-yl)-2,5-diphenyl-2H-tetrazolium bromide; Sigma-Aldrich Japan Co.) method. That is, an MTT solution as dissolved in PBS at a concentration of 5 mg/mL was added to the 96-well plate accommodating the cells, at a rate of 10 μL/well, followed by 2 hours' incubation at 37° C. After the end of the incubation, the medium was removed and the formazan which was taken into the cells and changed was dissolved with 100 μL of dimethylsulfoxide. Absorbance of the formazan was measured at wavelength 570 nm, using a microplate reader, subtracting the 630 nm background.
As shown by the Table 3, absorbance values of the wells to which the test compounds were added were invariably less than 150% of the absorbance of the control well, and it was confirmed that the test compounds were free of estrogenic activity.

steroid sulfatase [3] = target: T1, steroid sulfatase; settings: background statement; cited from earlier work
[4] = background statement; cited from earlier work

| SMILES | Inhibitory rate (%) (10^−6 M) (steroid sulfatase [1]) | Inhibitory rate (%) (10^−7 M) (steroid sulfatase [1]) | Inhibitiory rate (0.5 mg/kg, p.o., %) Liver (steroid sulfatase [2]) | Inhibitiory rate (0.5 mg/kg, p.o., %) Uterus (steroid sulfatase [2]) | Absorbance relative to that of the control well (10^−6 M, %) (MCF-7 cells) | steroid sulfatase inhibiting activity (steroid sulfatase [3]) | estrogenic activity [4] |
| --- | --- | --- | --- | --- | --- | --- | --- |
| NS(=O)(=O)Oc1cc(F)c(N2CCN(S(=O)(=O)Cc3ccc(Cl)cc3)CC2)cc1F [Example 56, 4-[(4-chlorobenzylsulfonyl)piperazin-1-yl]-2,5-difluorophenyl-O-sulfamate] | 99.9% | 98.4% | 99.37% | 99.81% | – | – | – |
| NS(=O)(=O)Oc1cc(F)c(N2CCC(CCCc3ccccc3)CC2)cc1F.O=S(=O)(O)c1ccccc1 [Example 59, 2,5-difluoro-4-[4-(3-phenylpropyl)piperidino]phenyl-O-sulfamate benzenesulfonate] | 99.0% | 95.4% | 100.00% | 100.00% | 105.3% | – | – |
| NS(=O)(=O)Oc1cc(F)c(N2CCC(CCCc3ccccc3)CC2)cc1F [Example 37, 2,5-difluoro-4-[4-(3-phenylpropyl)piperidino]phenyl-O-sulfamate] | 98.9% | 93.6% | 99.85% | 99.95% | 89.5% | – | – |
| CCCCCCCCS(=O)(=O)N1CCN(c2cc(F)c(OS(N)(=O)=O)cc2F)CC1 [Example 52, 2,5-difluoro-4-[4-(octylsulfonyl)piperazin-1-yl]phenyl-O-sulfamate] | 100.0% | 99.3% | – | – | 112.0% | – | – |
| Cc1cc(=O)oc2cc(OS(N)(=O)=O)ccc12 [COUMATE, 4-methylcoumarin-7-sulfamate] | – | – | – | – | – | low level of steroid sulfatase inhibiting activity | free from estrogenic activity |
| NS(=O)(=O)Oc1ccc(N2CCN(CCc3ccc(Cl)cc3)CC2)cc1F [Example 22, 4-[4-[2-(4-chlorophenyl)ethyl]piperazin-1-yl]-2-fluorophenyl-O-sulfamate] | 97.3% | 85.0% | 99.85% | 99.98% | 74.6% | – | – |
| NS(=O)(=O)Oc1cc(F)c(N2CCN(CCCC3CCCCC3)CC2)cc1F [Example 45, 4-[4-(3-cyclohexylpropyl)piperazin-1-yl]-2,5-difluorophenyl-O-sulfamate] | 98.5% | 88.6% | 99.09% | 99.32% | 91.4% | – | – |
| CCCCCCCCCCCCCC(=O)NCCc1ccc(OS(N)(=O)=O)cc1 [DU-14, 4-(2-myristoylaminoethyl)phenyl sulfamate] | – | – | – | – | – | low level of steroid sulfatase inhibiting activity | free from estrogenic activity |
| C[C@]12CC[C@@H]3c4ccc(OS(N)(=O)=O)cc4CC[C@H]3[C@@H]1CCC2=O [EMATE, estrone-3-sulfamate] | – | – | – | – | – | potent steroid sulfatase inhibiting activity | potent estrogenic activity |
| NS(=O)(=O)Oc1cc(F)c(N2CCN(CCc3ccccc3)CC2)cc1F [Example 43, 2,5-difluoro-4-(4-phenethylpiperazin-1-yl)phenyl-O-sulfamate] | 98.5% | 87.0% | 99.90% | 99.98% | 101.1% | – | – |
| NS(=O)(=O)Oc1cc(F)c(N2CCN(S(=O)(=O)c3ccc(Cl)cc3)CC2)cc1F [Example 55, 4-[4-(4-chlorophenylsulfonyl)piperazin-1-yl]-2,5-difluorophenyl-O-sulfamate] | 100.0% | 97.5% | – | – | 64.6% | – | – |
| CC(C)(C)c1ccc(C(=O)CCCN2CCN(c3cc(F)c(OS(N)(=O)=O)cc3F)CC2)cc1 [Example 48, 4-[4-[4-(4-tert-butylphenyl)-4-oxobutyl]piperazin-1-yl]-2,5-difluorophenyl-O-sulfamate] | 100.0% | 95.9% | – | – | 112.0% | – | – |

Reference: patent publication US7449466B2, “Cyclic aminophenyl sulfamate derivative” (Aska Pharmaceutical Co., Ltd., priority 2003, dated 2008)
